For data set [1], the system named is 2LMP subclone generated from MDA-MB-231. In words: 2LMP mouse xenograft model. Format: in vivo. An excerpt: Xenograft and orthotopic models of cancer cell lines with HuR overexpression will be used to test the in vivo therapeutic potential of compounds of the present technology. A person of ordinary skill in the art is well apprised of cancer cell lines with HuR overexpression, as exemplified by references 2-12 cited herein in the “References” section. Tumor models will be established as described in Xu, L., et al., (−)−Gossypol enhances response to radiation therapy and results in tumor regression of human prostate cancer. Mol Cancer Ther, 2005. 4(2): p. 197-205.35 Briefly, 4-6 week old athymic NCr-nu/nu mice or 8-10-week-old NOD/SCID mice will be inoculated subcutaneously on both sides of flanks with 0.1 ml of a cell suspension of 1-5×10^6 tumor cells. Tumors will be allowed to grow to approximately 100 mm^3, when the blood vessel supplies to the tumor are established. Each group will contain at least 5 animals with at least 10 tumors across the five animals. Animals will be given compounds or vehicle i.v., i.p. or q.o.d.×2-3 weeks as described in Xu, L., et al., Systemic p53 gene therapy of cancer with immunolipoplexes targeted by anti-transferrin receptor scFv. Mol Med, 2001. 7(10): p. 723-34 and Xu, L., et al., Self-assembly of a virus-mimicking nanostructure system for efficient tumor-targeted gene delivery. […] The tumor sizes and animal body weights will be measured twice a week. […]

Data set [2] concerns MDA-MB-231 cells. The data set is described as follows: Matrigel invasion assay. Format: cell-based. The note with it: 10 μM; 24 h pretreatment, 20 h incubation. As to the method:
To examine the anti-metastatic effect of compounds of the present technology, an invasion assay using Matrigel Invasion Chambers coated with Matrigel Matrix was performed. To perform the assays, MDA-MB-231 cells pretreated with compounds for 24 hours are added to the chambers and then incubated for 20 hours. Cells that remained on the upper surface of the chamber are completely removed with a cotton swab. Cells that emigrated or invaded through the membrane/Matrigel to the bottom of the chamber were fixed and stained with 0.2% crystal violet and photographed.

Data set [3] has as its target T1, RNA-binding protein Lin-28 homolog B (LIN28B) (Homo sapiens, UniProt Q6ZN17).
T1 sequence (Q6ZN17 1-250): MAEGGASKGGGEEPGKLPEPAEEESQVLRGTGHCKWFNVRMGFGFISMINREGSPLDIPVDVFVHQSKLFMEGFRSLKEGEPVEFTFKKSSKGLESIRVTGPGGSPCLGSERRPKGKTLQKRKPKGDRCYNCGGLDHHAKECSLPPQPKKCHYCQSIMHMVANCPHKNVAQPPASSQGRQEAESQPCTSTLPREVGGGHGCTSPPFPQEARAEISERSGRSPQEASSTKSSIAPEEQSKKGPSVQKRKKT
In words: LIN28B FP assay.

The target of data set [4] is Musashi 2 (Msi2) (Homo sapiens, UniProt Q96DH6). The data set is described as follows: Msi2 FP assay. Format: binding. The following applies: cell marked (RRM1), read-out: Msi2 (Ki) (RRM1).
The subject of data set [5] is triple-negative breast cancer cell line MDA-MB-231. In words: Cytotoxicity assay (WST-8), MDA-MB-231. It is filed as cell-based. The note with it: Homo sapiens, 96 h incubation. The essentials: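 Cells (3,000-5,000/well) were treated in triplicate with titrated compounds for 96 h, then WST-8 was added for 1-3 h at 37° C and absorbance read at 450 nm (650 nm correction). IC50 (50% growth inhibition vs vehicle) came from sigmoid curve fitting.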
On the technique in general: Tetrazolium dyes change colour on reduction, which living cells bring about.

For data set [6], the target named is T2, full-length human HuR protein (Homo sapiens, UniProt Q15717).
T2 construct: full-length human HuR protein was produced by the KU COBRE-PSF Protein Purification Group; made in house
In words: FP assay of HuR-Msi1 ARE binding inhibition. The note with it: HuR-Msi1 ARE interaction; read-out: HuR Ki via FP assay. In a few lines: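 Fluorescence polarization competition using full-length human HuR protein and a 3′-fluorescein-labelled 16-nt Msi1 ARE RNA. A fluorescein-labelled degenerate 16-nt RNA served as negative control.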

Data set [7] concerns MDA-MB-231 HuR knockout clones (HuR KO1 and HuR KO2). The data set is described as follows: Cytotoxicity against HuR knockout clones of MDA-MB-231. The note with it: HuR KO1 and HuR KO2 vs MDA-MB-231 and sgControl. Format: cell-based. The procedure: The cytotoxicity of various compounds of the present technology in several cancer cell lines (pancreatic cancer cell line MIAPaCa-2, triple-negative breast cancer cell line MDA-MB-231, and colon cancer cell lines HCT116, HCT116 β/W, and RKO) was assessed by a cytotoxicity assay. Cells were seeded in 96-well culture plates (3,000-5,000 cells/well) and treated with titrated compounds in triplicate. After 96 h incubation, cell growth medium was removed and proliferation reagent WST-8 (Sigma) was added to each well and incubated at 37° C. for 1-3 h. Absorbance was then measured with a plate reader at 450 nm with correction at 650 nm. The results were expressed as the percentage of absorbance of treated wells versus that of vehicle control. IC50, the drug concentration causing 50% growth inhibition, was calculated via sigmoid curve fitting using GraphPad Prism 5.0. The results for those compounds tested against MIAPaCa-2 and MDA-MB-231 are provided in Table 1; the results for those compounds tested against colon cancer cell lines HCT116, HCT116 β/W, and RKO are provided in Table 3.
The cytotoxicity of KH-39 and KH-58 against HuR knockout clones was probed by the same assay as described above. […]

Here are results for one compound from patent publication US20220213052A1, “INHIBITORS OF RNA-BINDING PROTEINS, COMPOSITIONS THEREOF, AND THERAPEUTIC USES THEROF” (The University of North Carolina at Chapel Hill, priority 2019, published 2022).

Musashi 2 (Msi2), sequence (Q96DH6 whole entry, species assumed): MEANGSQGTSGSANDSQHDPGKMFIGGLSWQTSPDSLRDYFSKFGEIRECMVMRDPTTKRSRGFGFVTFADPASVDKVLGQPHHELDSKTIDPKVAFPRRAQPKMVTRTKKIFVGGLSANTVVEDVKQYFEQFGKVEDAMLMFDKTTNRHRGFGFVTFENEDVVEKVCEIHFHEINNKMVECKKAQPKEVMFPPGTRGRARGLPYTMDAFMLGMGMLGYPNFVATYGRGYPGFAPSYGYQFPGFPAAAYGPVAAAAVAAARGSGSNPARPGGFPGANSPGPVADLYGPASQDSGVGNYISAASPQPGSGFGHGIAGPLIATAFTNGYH
T2 sequence (Q15717 whole entry): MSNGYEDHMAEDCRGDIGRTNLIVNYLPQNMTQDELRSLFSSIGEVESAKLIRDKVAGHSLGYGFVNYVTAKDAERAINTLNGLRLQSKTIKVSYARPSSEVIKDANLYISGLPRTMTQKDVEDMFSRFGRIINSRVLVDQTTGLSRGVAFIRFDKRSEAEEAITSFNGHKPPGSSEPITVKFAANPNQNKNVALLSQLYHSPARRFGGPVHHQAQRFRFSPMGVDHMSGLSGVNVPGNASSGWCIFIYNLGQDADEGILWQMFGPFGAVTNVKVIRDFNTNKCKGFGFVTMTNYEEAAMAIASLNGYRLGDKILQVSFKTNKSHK

Regarding `CC(C)(C)c1ccc(C(=O)Nc2ccc3[nH]c(C(=O)NO)cc3c2)cc1` [KH-39, 5-(4-(tert-butyl)benzamido)-N-hydroxy-1H-indole-2-carboxamide], in data set [1] (2LMP xenograft model), the “bodyweight gain of mice” value is on record as “gain bodyweight with similar trend to those in vehicle control group”. The “tumor growth compared to the vehicle control” value in data set [1] (after three-week treatment, ****P<0.0001, n=10) was “significantly decreased tumor growth”. The MDA-MB-231 cell invasion entry in data set [2] is reported as “clearly inhibited MDA-MB-231 cell invasion”. In addition, the inhibition constant Ki in data set [3] was more than 20 µM; in data set [4], 3.15 µM; in data set [6], 0.65 µM. Besides, it took 4.74 µM to reach half-maximal inhibition in data set [5] (IC50). Also, the “IC50 of HuR KO clones versus parental cells and vector control cells” value in data set [7] is given as “two to three folds higher IC50 values”.

In general, Ki refers to a dissociation constant, usually derived from enzyme kinetics or from competition with a known ligand. One may read the IC50 as the concentration that gives 50% inhibition.
